Assay results: ChEMBL document CHEMBL1201862, “PubChem BioAssay data set” (2004)
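Compound exposure: 48 hours, 5 concentrations, 96-well plates. GI50: concentration for 50% inhibition of growth.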 The source made the active and inactive calls. No stated cut-off is given here; in the data, active = GI50 up to about 1.1 µM and inactive = higher.

Legend:
Test in all cases: inhibition of tumour cell growth, NCI panel, 48 h
[1] = system: 786-0
[2] = system: A498
[3] = system: A549
[4] = system: CAKI-1
[5] = system: CCRF-CEM
[6] = system: COLO 205
[7] = system: DLD-1
[8] = system: DMS-114
[9] = system: DMS-273
[10] = system: EKVX
[11] = system: HCC 2998
[12] = system: HCT-116
[13] = system: HCT-15
[14] = system: HL-60
[15] = system: HOP-62
[16] = system: HT-29
[17] = system: IGROV-1
[18] = system: K562
[19] = system: KM-20L2
[20] = system: KM12
[21] = system: LOX IMVI
[22] = system: LXFL 529
[23] = system: M14
[24] = system: M19-MEL
[25] = system: MOLT-4
[26] = system: Malme-3M
[27] = system: NCI-H23
[28] = system: NCI-H522
[29] = system: OVCAR-3
[30] = system: OVCAR-4
[31] = system: OVCAR-5
[32] = system: OVCAR-8
[33] = system: RPMI-8226
[34] = system: RXF 631
[35] = system: SF-268
[36] = system: SF-295
[37] = system: SF-539
[38] = system: SK-MEL-28
[39] = system: SK-MEL-2
[40] = system: SK-MEL-5
[41] = system: SK-OV-3
[42] = system: SN12C
[43] = system: SNB-19
[44] = system: SNB-75
[45] = system: SNB-78
[46] = system: SW-620
[47] = system: TK-10
[48] = system: U-251
[49] = system: UACC-257
[50] = system: UACC-62
[51] = system: UO-31
[52] = system: XF498
[53] = system: ACHN
[54] = system: HOP-18
[55] = system: HOP-92
[56] = system: NCI-H226
[57] = system: NCI-H460
[58] = system: RXF 393
[59] = system: SR

## CCOc1ccccc1/N=N/c1ccc2oc(=O)c(C(=O)Nc3cccc(C)c3)cc2c1
[1]
  GI50: 34 µM (inactive)
[2]
  GI50: 42.5 µM (inactive)
[3]
  GI50: 42.3 µM (inactive)
[4]
  GI50: 49.8 µM (inactive)
[5]
  GI50: 18.7 µM (inactive)
[6]
  GI50: 26.7 µM (inactive)
[7]
  GI50: 24.2 µM (inactive)
[8]
  GI50: 23.1 µM (inactive)
[9]
  GI50: 34.3 µM (inactive)
[10]
  GI50: 25.7 µM (inactive)
[11]
  GI50: 31.3 µM (inactive)
[12]
  GI50: 20.2 µM (inactive)
[13]
  GI50: 25.4 µM
[14]
  GI50: 10.2 µM (inactive)
[15]
  GI50: 49.1 µM (inactive)
[16]
  GI50: 36.2 µM (inactive)
[17]
  GI50: 39.5 µM (inactive)
[18]
  GI50: 23.3 µM (inactive)
[19]
  GI50: 43.5 µM (inactive)
[20]
  GI50: 30 µM (inactive)
[21]
  GI50: 14.7 µM (inactive)
[22]
  GI50: 26.1 µM (inactive)
[23]
  GI50: 18.7 µM (inactive)
[24]
  GI50: 27 µM (inactive)
[25]
  GI50: 19.9 µM (inactive)
[26]
  GI50: 29.9 µM (inactive)
[27]
  GI50: 21.4 µM (inactive)
[28]
  GI50: 17.9 µM (inactive)
[29]
  GI50: 20 µM (inactive)
[30]
  GI50: 28.6 µM (inactive)
[31]
  GI50: > 100 µM (inactive)
[32]
  GI50: 24.7 µM (inactive)
[33]
  GI50: 24.5 µM (inactive)
[34]
  GI50: 34.5 µM (inactive)
[35]
  GI50: 29.4 µM (inactive)
[36]
  GI50: 29.6 µM (inactive)
[37]
  GI50: 25.8 µM (inactive)
[38]
  GI50: 26 µM (inactive)
[39]
  GI50: 19.8 µM (inactive)
[40]
  GI50: 15.1 µM (inactive)
[41]
  GI50: 49.7 µM (inactive)
[42]
  GI50: 36.3 µM (inactive)
[43]
  GI50: 20.3 µM (inactive)
[44]
  GI50: 37 µM (inactive)
[45]
  GI50: 24.5 µM (inactive)
[46]
  GI50: 31.3 µM (inactive)
[47]
  GI50: 48.3 µM (inactive)
[48]
  GI50: 25.6 µM (inactive)
[49]
  GI50: 26.1 µM (inactive)
[50]
  GI50: 26.2 µM (inactive)
[51]
  GI50: 16.6 µM (inactive)
[52]
  GI50: 34.6 µM (inactive)

## O=C(C[n+]1ccccc1)N/N=C(/CCC(=O)N(Cc1ccccc1)Cc1ccccc1)CC(=O)c1ccccc1
[1]
  GI50: > 100 µM (inactive)
[2]
  GI50: > 100 µM (inactive)
[3]
  GI50: > 100 µM (inactive)
[53]
  GI50: > 100 µM (inactive)
[4]
  GI50: > 100 µM (inactive)
[5]
  GI50: > 100 µM (inactive)
[6]
  GI50: > 100 µM (inactive)
[7]
  GI50: > 100 µM (inactive)
[8]
  GI50: > 100 µM (inactive)
[9]
  GI50: > 100 µM (inactive)
[10]
  GI50: > 100 µM (inactive)
[11]
  GI50: > 100 µM (inactive)
[12]
  GI50: > 100 µM (inactive)
[13]
  GI50: > 100 µM
[14]
  GI50: > 100 µM (inactive)
[54]
  GI50: > 100 µM (inactive)
[15]
  GI50: > 100 µM (inactive)
[55]
  GI50: > 100 µM (inactive)
[16]
  GI50: > 100 µM (inactive)
[17]
  GI50: > 100 µM (inactive)
[18]
  GI50: > 100 µM (inactive)
[19]
  GI50: > 100 µM (inactive)
[20]
  GI50: > 100 µM (inactive)
[21]
  GI50: > 100 µM (inactive)
[22]
  GI50: > 100 µM (inactive)
[23]
  GI50: > 100 µM (inactive)
[24]
  GI50: > 100 µM (inactive)
[25]
  GI50: > 100 µM (inactive)
[26]
  GI50: > 100 µM (inactive)
[56]
  GI50: > 100 µM (inactive)
[27]
  GI50: > 100 µM (inactive)
[57]
  GI50: > 100 µM (inactive)
[28]
  GI50: > 100 µM (inactive)
[29]
  GI50: > 100 µM (inactive)
[30]
  GI50: > 100 µM (inactive)
[31]
  GI50: > 100 µM (inactive)
[32]
  GI50: > 100 µM (inactive)
[33]
  GI50: > 100 µM (inactive)
[58]
  GI50: > 100 µM (inactive)
[34]
  GI50: > 100 µM (inactive)
[35]
  GI50: > 100 µM (inactive)
[36]
  GI50: > 100 µM (inactive)
[37]
  GI50: > 100 µM (inactive)
[38]
  GI50: > 100 µM (inactive)
[39]
  GI50: > 100 µM (inactive)
[40]
  GI50: > 100 µM (inactive)
[42]
  GI50: > 100 µM (inactive)
[43]
  GI50: > 100 µM (inactive)
[44]
  GI50: > 100 µM (inactive)
[45]
  GI50: > 100 µM (inactive)
[59]
  GI50: > 100 µM (inactive)
[46]
  GI50: > 100 µM (inactive)
[47]
  GI50: > 100 µM (inactive)
[48]
  GI50: > 100 µM (inactive)
[49]
  GI50: > 100 µM (inactive)
[50]
  GI50: > 100 µM (inactive)
[51]
  GI50: > 100 µM (inactive)
